Assay results as given in US10183936B2, “Hepatitis B core protein allosteric modulators” (priority 2014, dated 2019).

How the values were obtained:
[1] = test system: HBV viral production in AD38 cells; assay: Viral load production in AD38 cells by quantitative PCR of the HBV core sequence in supernatant; assay type: cell-based; conditions: Hepatitis B virus, 144 h; 10 μM compound, 6 days at 37° C., viral load in supernatant compared against DMSO control wells; read-out: AD38 Viral Load (CpAM/DMSO %) at 10 μM
How it was run: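 AD38 cells seeded at 50,000/well, treated 6 days at 37° C with compound added as 10× solution in 10% DMSO. HBV core sequence in clarified supernatant quantified by TaqMan qPCR against known standards; viral load compared with DMSO control wells.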

[2] = test system: AD38 cells; assay: Viability of AD38 cells (Promega CellTiter-Glo) at the end of compound treatment; assay type: cell-based; conditions: 10 μM compound, 6 days, luminescence normalized against DMSO control wells (controls being 100%)
How it was run: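 AD38 cells seeded at 50,000/well received compound from a 10× solution in 10% DMSO and were incubated 6 days at 37° C. Viability was then read by CellTiter-Glo luminescence in tetracycline-free medium with 2% FBS and 1% DMSO, normalized to DMSO control wells (100%) and reported as percent viability.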

Structure (SMILES) | activity at 10 µM [1] [%] | AD38 Viability Normalized Result (CPAM/DMSO %) at 10 μM [2] [%]
O=C(NCCc1ccccn1)c1ccc2c(c1)NC(=O)c1ccccc1S2(=O)=O [Compound 1447] | 1 | 85
O=C(NCCc1cncnc1)c1ccc2c(c1)NC(=O)c1cc(F)ccc1S2 [Compound 1312] | 5 | 83
CCc1ncc(CNC(=O)c2ccc3c(c2)NC(=O)c2ccccc2S3)s1 [Compound 1604] | 0 | 105
O=C1Nc2c(cc(F)c(C(=O)NCc3cccnc3)c2F)Sc2ccccc21 [Compound 1546] | 65 | 89
O=C(NCCc1ccccc1)Nc1ccc2c(c1)NC(=O)c1ccccc1S2 [Compound 1224, 1-(11-oxo-10, 11-dihydrodibenzo [b,f] [1,4]thiazepin-8-yl)-3-phenethylurea] | 3 | 65
O=C(NCCc1ccccn1)c1ccc2c(c1)NC(=O)c1ccccc1N2Cc1ccccc1 [Compound 1474] | 51 | 101
NC(=O)c1ccc2c(c1)NC(=O)c1ccccc1[S+]2[O-] (stereo not drawn) [Compound 1575] | 90 | 108
O=C(NCCc1ccccn1)c1ccc2c(c1)NC(=O)c1ccc(F)cc1S2 [Compound 1348] | 0 | 107
O=C(NCc1cnco1)c1ccc2c(c1)NC(=O)c1cc(F)ccc1S2 [Compound 1311] | 8 | 95
O=C(NCCC(c1ccccc1)N1CCCC1)c1ccc2c(c1)NC(=O)c1ccccc1S2 (stereo not drawn) [Compound 1252] | 14 | 94
NC(=O)CSc1nnc(CCNC(=O)c2ccc3c(c2)NC(=O)c2ccccc2S3)o1 [Compound 1582] | 8 | 112
O=C(Nc1cncc(Cl)c1)c1ccc2c(c1)NC(=O)c1cc(F)ccc1S2 [Compound 1345] | 115 | 93
O=C(NCc1cncnc1)c1ccc2c(c1)NC(=O)c1ccccc1[S+]2[O-] (stereo not drawn) [Compound 1373] | 10 | 100
O=C(Nc1ccncc1)c1ccc2c(c1)NC(=O)c1cc(F)ccc1S2 [Compound 1330] | 41 | 109
CN(C)S(=O)(=O)c1ccc(CCNC(=O)c2ccc3c(c2)NC(=O)c2ccccc2N3Cc2ccccc2)cc1 [Compound 1512] | 27 | 99
Cc1cccc(CNC(=O)c2ccc3c(c2)NC(=O)c2ccccc2S3)c1 [Compound 1163] | 3 | 104
O=C(NCCc1cccnc1)c1cc2c(cc1F)Sc1ccccc1C(=O)N2 [Compound 1395] | 64 | 79
O=C(NCCC1CCCCC1)c1ccc2c(c1)NC(=O)c1cc(F)ccc1S2 [Compound 1285] | 3 | 108
O=C(NCCc1cccc(C(F)(F)F)c1)c1ccc2c(c1)NC(=O)c1ccccc1S2 [Compound 1195] | 0 | 48
O=C(NCCc1ccc(-c2ccccc2)cc1)c1ccc2c(c1)NC(=O)c1ccccc1[S+]2[O-] (stereo not drawn) [Compound 1476] | 1 | 86
O=C(NCCc1cncnc1)c1ccc2c(c1)NC(=O)c1ccccc1[S+]2[O-] (stereo not drawn) [Compound 1423] | 37 | 91
O=C(NCCc1cnco1)c1ccc2c(c1)NC(=O)c1ccccc1S2 [Compound 1246] | 6 | 96
O=C(NCCc1ccccn1)c1ccc2c(c1)NC(=O)c1cccc(F)c1S2 [Compound 1383] | 1 | 87
O=C(NCCc1cnco1)c1ccc2c(c1)NC(=O)c1ccccc1N2Cc1ccccc1 [Compound 1559] | 68 | 92
O=C(NCCc1ccc(F)cc1)c1ccc2c(c1)NC(=O)c1ccccc1S2 [Compound 1113] | 1 | 99
CC(CNC(=O)c1ccc2c(c1)NC(=O)c1ccccc1S2)c1ccccc1 (stereo not drawn) [Compound 1212] | 1 | 72
O=C(Nc1ccncc1)c1ccc2c(c1)NC(=O)c1cccc(F)c1S2 [Compound 1393] | 41 | 87
